Values quoted from earlier work in patent US20050214675A1, “Positive-type photosensitive composition” (FUJI PHOTO FILM CO., LTD., priority 2004, published 2005).
Like-named read-outs stand apart in the source and are kept apart here.

Details: for Hammett value: cation of the sulfonium salt used in the plate, third embodiment Tables 1 to 4; for σ (sum of Hammett values of substituents on the aryl skeletons of the cation): o-position treated as p-position
[1] = compound list of first embodiment
[2] = compound list of second embodiment

Row | SMILES | Hammett value | σ (sum of Hammett values of substituents on the aryl skeletons of the cation) [1] | σ (sum of Hammett values of substituents on the aryl skeletons of the cation) [2]
1 | Cc1ccc([S+](c2ccc(Cl)cc2)c2ccc(Cl)cc2)cc1 [(84)] | – | 0.29 | 0.29
2 | CC(C)(C)c1ccc([S+](c2ccc(Cl)cc2)c2ccc(Cl)cc2)cc1 [(85)] | – | 0.26 | 0.26
3 | CC(C)(C)c1ccc([S+](c2ccc(C(C)(C)C)cc2)c2ccc(C(C)(C)C)cc2)cc1 [(86)] | – | −0.59 | −0.59
4 | Fc1ccc([S+](c2ccc(F)cc2)c2ccc(F)cc2)cc1 [(87)] | – | 0.186 | 0.186
5 | COc1ccc([S+](c2ccc(OC)cc2)c2ccc(OC)cc2)cc1 [(88)] | – | −0.804 | −0.804

Second part, the molecule after the results:

Row | Hammett value | σ (sum of Hammett values of substituents on the aryl skeletons of the cation) [1] | σ (sum of Hammett values of substituents on the aryl skeletons of the cation) [2] | SMILES
6 | 0 | – | – | O=C(O)c1c2ccccc2cc2ccccc12 [(28)]
7 | 0.69 | – | – | O=S(=O)(O)c1ccc(O)cc1 [(68)]
8 | 0.69 | – | – | O=Cc1ccccc1S(=O)(=O)O [(72)]
9 | 0.69 | – | – | COC(=O)c1cc(C(=O)OC)cc(S(=O)(=O)O)c1 [(75)]
10 | 0.69 | – | – | O=C(O)c1cc(C(=O)O)cc(S(=O)(=O)O)c1 [(76)]
11 | 0.69 | – | – | COc1cc(O)c(C(=O)c2ccccc2)cc1S(=O)(=O)O [(77)]
12 | – | −0.848 | −0.848 | Cc1ccc([S+](c2ccc(C)cc2)c2cc(C)c(O)c(C)c2)cc1 [(89)]
